Legend:
Assay in all cases: Radiolabeled ATP kinase assay, panel of 371 kinases (Table S6)
Format in all cases: biochemical
[1] = target: T1, panel of 371 human kinases (Homo sapiens, UniProt P17612); settings: PKA; 0.1 μM; 10 μM ATP; read-out: % Enzyme Activity (relative to DMSO controls)
T1 construct: purchased Reaction Biology Corp
From the text: (§1) ; FIG. 38C). […]. Further targeted analyses, such as genetic knock-down or knock-out, may be warranted to parse the role of these additional kinases in our model of neurodegeneration.

[2] = target: T2, panel of 371 human kinases (Homo sapiens, UniProt Q6XUX3); settings: RIPK5; 0.1 μM; 10 μM ATP; read-out: % Enzyme Activity (relative to DMSO controls)
T2 construct: purchased Reaction Biology Corp
From the text: as §1

[3] = target: T3, panel of 371 human kinases (Homo sapiens, UniProt P04626); settings: ERBB2/HER2; 0.1 μM; 10 μM ATP; read-out: % Enzyme Activity (relative to DMSO controls)
T3 construct: purchased Reaction Biology Corp
From the text: as §1

[4] = target: T4, panel of 371 human kinases (Homo sapiens, UniProt Q52WX2); settings: SBK1; 0.1 μM; 10 μM ATP; read-out: % Enzyme Activity (relative to DMSO controls)
T4 construct: purchased Reaction Biology Corp
T4 sequence (Q52WX2 whole entry): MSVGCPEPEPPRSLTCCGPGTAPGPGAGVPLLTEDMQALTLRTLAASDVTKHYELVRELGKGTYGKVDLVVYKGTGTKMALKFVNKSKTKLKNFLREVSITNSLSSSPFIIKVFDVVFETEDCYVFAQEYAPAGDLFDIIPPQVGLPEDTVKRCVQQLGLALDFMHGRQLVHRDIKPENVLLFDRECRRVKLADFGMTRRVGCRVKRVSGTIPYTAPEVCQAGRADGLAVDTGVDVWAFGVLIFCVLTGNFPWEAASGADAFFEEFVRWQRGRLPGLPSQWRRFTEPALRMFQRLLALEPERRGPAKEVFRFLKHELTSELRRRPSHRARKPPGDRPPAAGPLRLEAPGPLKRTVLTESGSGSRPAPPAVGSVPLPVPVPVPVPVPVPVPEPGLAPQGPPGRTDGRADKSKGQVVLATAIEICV
From the text: as §1

[5] = target: T5, panel of 371 human kinases (Homo sapiens, UniProt Q9UIK4); settings: DAPK2; 0.1 μM; 10 μM ATP; read-out: % Enzyme Activity (relative to DMSO controls)
T5 construct: purchased Reaction Biology Corp
From the text: as §1

[6] = target: T6, panel of 371 human kinases (Homo sapiens, UniProt Q04759); settings: PKCtheta; 0.1 μM; 10 μM ATP; read-out: % Enzyme Activity (relative to DMSO controls)
T6 construct: purchased Reaction Biology Corp
T6 sequence (Q04759 whole entry): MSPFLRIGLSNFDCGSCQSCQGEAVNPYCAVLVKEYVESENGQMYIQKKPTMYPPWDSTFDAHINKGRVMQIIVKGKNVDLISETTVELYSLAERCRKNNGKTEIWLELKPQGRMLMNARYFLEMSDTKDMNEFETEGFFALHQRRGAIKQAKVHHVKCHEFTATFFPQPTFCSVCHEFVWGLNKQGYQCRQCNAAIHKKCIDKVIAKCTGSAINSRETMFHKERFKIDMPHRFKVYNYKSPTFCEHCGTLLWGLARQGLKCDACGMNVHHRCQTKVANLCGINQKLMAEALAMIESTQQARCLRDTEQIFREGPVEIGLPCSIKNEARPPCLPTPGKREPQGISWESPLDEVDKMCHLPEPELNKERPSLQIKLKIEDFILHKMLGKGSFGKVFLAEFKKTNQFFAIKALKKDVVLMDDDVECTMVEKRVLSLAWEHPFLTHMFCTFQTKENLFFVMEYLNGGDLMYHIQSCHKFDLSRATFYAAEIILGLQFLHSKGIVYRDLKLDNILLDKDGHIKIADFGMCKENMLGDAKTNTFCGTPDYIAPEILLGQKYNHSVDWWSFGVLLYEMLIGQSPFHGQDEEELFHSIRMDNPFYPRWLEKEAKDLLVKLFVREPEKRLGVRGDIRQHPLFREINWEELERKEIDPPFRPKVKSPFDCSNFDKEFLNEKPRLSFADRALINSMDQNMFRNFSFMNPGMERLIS
From the text: as §1

[7] = target: T7, panel of 371 human kinases (Homo sapiens, UniProt Q16512); settings: PKN1/PRK1; 0.1 μM; 10 μM ATP; read-out: % Enzyme Activity (relative to DMSO controls)
T7 construct: purchased Reaction Biology Corp
T7 sequence (Q16512 whole entry): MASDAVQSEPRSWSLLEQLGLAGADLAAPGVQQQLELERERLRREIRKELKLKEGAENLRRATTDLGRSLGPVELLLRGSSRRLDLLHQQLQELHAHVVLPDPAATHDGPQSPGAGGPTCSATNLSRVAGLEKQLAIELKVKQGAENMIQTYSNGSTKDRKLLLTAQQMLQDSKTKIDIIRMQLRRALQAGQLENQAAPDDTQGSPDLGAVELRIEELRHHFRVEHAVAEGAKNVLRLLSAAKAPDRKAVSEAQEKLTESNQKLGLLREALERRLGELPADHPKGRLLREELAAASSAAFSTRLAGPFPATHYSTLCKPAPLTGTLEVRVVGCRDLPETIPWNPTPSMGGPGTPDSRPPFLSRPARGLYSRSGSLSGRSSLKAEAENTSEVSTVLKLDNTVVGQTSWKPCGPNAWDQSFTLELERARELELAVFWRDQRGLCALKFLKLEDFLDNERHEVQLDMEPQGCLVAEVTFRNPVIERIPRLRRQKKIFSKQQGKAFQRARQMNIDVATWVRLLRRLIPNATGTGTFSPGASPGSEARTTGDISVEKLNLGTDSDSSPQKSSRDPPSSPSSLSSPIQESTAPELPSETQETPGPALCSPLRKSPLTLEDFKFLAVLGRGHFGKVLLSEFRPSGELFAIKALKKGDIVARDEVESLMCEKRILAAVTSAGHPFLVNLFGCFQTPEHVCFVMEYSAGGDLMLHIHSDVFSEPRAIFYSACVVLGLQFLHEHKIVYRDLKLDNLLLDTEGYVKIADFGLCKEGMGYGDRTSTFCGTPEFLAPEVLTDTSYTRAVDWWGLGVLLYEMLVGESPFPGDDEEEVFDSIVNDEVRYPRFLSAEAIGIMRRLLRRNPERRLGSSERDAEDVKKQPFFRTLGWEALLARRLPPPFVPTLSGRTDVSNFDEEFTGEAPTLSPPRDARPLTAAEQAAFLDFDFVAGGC
From the text: as §1

[8] = target: T8, panel of 371 human kinases (Homo sapiens, UniProt Q13555); settings: CAMK2g; 0.1 μM; 10 μM ATP; read-out: % Enzyme Activity (relative to DMSO controls)
T8 construct: purchased Reaction Biology Corp
From the text: as §1

[9] = target: T9, panel of 371 human kinases (Homo sapiens, UniProt Q8IVT5); settings: KSR1; 0.1 μM; 10 μM ATP; read-out: % Enzyme Activity (relative to DMSO controls)
T9 construct: purchased Reaction Biology Corp
From the text: as §1

[10] = target: T10, panel of 371 human kinases (Homo sapiens, UniProt Q8TD08); settings: ERK7/MAPK15; 0.1 μM; 10 μM ATP; read-out: % Enzyme Activity (relative to DMSO controls)
T10 construct: purchased Reaction Biology Corp
From the text: as §1

[11] = target: T11, panel of 371 human kinases (Homo sapiens, UniProt Q9UK32); settings: RSK4; 0.1 μM; 10 μM ATP; read-out: % Enzyme Activity (relative to DMSO controls)
T11 construct: purchased Reaction Biology Corp
From the text: as §1

[12] = target: T12, panel of 371 human kinases (Homo sapiens, UniProt O00238); settings: ALK6/BMPR1B; 0.1 μM; 10 μM ATP; read-out: % Enzyme Activity (relative to DMSO controls)
T12 construct: purchased Reaction Biology Corp
T12 sequence (O00238 14-502): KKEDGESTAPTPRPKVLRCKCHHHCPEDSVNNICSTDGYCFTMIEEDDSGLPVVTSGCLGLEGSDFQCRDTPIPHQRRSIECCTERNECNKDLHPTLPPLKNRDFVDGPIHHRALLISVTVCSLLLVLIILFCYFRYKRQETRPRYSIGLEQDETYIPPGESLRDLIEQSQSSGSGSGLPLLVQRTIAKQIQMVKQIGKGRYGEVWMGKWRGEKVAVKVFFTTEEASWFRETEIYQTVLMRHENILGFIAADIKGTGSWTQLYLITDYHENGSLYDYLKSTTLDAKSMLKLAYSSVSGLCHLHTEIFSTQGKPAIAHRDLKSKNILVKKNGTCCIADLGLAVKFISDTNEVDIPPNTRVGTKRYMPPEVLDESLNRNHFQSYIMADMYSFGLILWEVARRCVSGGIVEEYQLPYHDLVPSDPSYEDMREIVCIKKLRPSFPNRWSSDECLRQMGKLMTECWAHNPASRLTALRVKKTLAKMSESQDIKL
From the text: as §1

[13] = target: T13, panel of 371 human kinases (Homo sapiens, UniProt Q16288); settings: TRKC; 0.1 μM; 10 μM ATP; read-out: % Enzyme Activity (relative to DMSO controls)
T13 construct: purchased Reaction Biology Corp
From the text: as §1

[14] = target: T14, panel of 371 human kinases (Homo sapiens, UniProt P35916); settings: FLT4/VEGFR3; 0.1 μM; 10 μM ATP; read-out: % Enzyme Activity (relative to DMSO controls)
T14 construct: purchased Reaction Biology Corp
From the text: as §1

[15] = target: T15, panel of 371 human kinases (Homo sapiens, UniProt P53779); settings: JNK3; 0.1 μM; 10 μM ATP; read-out: % Enzyme Activity (relative to DMSO controls)
T15 construct: purchased Reaction Biology Corp
From the text: as §1

[16] = target: T16, panel of 371 human kinases (Homo sapiens, UniProt Q13153); settings: PAK1; 0.1 μM; 10 μM ATP; read-out: % Enzyme Activity (relative to DMSO controls)
T16 construct: purchased Reaction Biology Corp
T16 sequence (Q13153 whole entry): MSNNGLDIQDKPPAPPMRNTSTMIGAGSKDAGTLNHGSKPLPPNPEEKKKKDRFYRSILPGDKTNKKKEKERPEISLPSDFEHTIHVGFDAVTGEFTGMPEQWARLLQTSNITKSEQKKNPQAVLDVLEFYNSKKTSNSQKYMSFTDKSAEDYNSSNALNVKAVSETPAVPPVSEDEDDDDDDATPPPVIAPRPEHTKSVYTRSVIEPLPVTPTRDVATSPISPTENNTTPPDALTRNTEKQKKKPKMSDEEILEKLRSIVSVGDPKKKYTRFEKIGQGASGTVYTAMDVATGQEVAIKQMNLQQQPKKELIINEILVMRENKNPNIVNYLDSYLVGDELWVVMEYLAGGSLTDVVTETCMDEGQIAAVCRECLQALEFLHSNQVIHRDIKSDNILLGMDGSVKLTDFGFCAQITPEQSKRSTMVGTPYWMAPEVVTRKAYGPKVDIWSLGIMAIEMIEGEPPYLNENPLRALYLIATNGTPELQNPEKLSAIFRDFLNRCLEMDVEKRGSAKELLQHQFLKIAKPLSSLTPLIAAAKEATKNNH
From the text: as §1

[17] = target: T17, panel of 371 human kinases (Homo sapiens, UniProt Q96BR1); settings: SGK3/SGKL; 0.1 μM; 10 μM ATP; read-out: % Enzyme Activity (relative to DMSO controls)
T17 construct: purchased Reaction Biology Corp
T17 sequence (Q96BR1 whole entry): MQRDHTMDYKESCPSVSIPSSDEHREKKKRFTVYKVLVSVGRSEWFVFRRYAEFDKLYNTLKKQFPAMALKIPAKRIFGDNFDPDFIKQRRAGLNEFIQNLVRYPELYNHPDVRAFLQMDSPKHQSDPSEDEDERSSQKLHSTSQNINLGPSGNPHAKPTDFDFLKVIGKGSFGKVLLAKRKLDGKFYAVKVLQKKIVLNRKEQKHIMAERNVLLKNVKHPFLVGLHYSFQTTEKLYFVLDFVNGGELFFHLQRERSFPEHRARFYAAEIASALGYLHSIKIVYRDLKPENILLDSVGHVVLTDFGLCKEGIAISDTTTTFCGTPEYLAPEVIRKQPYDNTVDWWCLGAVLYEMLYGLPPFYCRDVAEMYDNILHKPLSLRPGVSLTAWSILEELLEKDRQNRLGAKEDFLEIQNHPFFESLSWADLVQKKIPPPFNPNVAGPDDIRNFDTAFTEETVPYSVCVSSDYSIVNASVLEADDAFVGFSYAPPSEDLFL
From the text: as §1

[18] = target: T18, panel of 371 human kinases (Homo sapiens, UniProt Q76MJ5); settings: ERN2/IRE2; 0.1 μM; 10 μM ATP; read-out: % Enzyme Activity (relative to DMSO controls)
T18 construct: purchased Reaction Biology Corp
From the text: as §1

[19] = target: T19, panel of 371 human kinases (Homo sapiens, UniProt Q56UN5); settings: VSK4/MAP3K19; 0.1 μM; 10 μM ATP; read-out: % Enzyme Activity (relative to DMSO controls)
T19 construct: purchased Reaction Biology Corp
From the text: as §1

[20] = target: T20, panel of 371 human kinases (Homo sapiens, UniProt Q9P289); settings: MST4; 0.1 μM; 10 μM ATP; read-out: % Enzyme Activity (relative to DMSO controls)
T20 construct: purchased Reaction Biology Corp
T20 sequence (Q9P289 whole entry): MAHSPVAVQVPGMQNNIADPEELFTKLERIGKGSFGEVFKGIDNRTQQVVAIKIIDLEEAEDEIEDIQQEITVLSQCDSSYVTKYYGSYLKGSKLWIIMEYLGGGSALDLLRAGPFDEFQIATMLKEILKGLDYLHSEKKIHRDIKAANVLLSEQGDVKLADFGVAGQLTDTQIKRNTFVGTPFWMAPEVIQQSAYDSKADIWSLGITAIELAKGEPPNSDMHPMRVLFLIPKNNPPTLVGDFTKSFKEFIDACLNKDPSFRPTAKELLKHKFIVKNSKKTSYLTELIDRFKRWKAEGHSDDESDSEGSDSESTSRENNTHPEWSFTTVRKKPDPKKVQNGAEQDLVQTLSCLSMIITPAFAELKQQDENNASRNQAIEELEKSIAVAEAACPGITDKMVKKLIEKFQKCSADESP
From the text: as §1

[21] = target: T21, panel of 371 human kinases (Homo sapiens, UniProt Q9H1R3); settings: MLCK2/MYLK2; 0.1 μM; 10 μM ATP; read-out: % Enzyme Activity (relative to DMSO controls)
T21 construct: purchased Reaction Biology Corp
From the text: as §1

[22] = target: T22, panel of 371 human kinases (Homo sapiens, UniProt Q86SG6); settings: NEK8; 0.1 μM; 10 μM ATP; read-out: % Enzyme Activity (relative to DMSO controls)
T22 construct: purchased Reaction Biology Corp
T22 sequence (Q86SG6 whole entry): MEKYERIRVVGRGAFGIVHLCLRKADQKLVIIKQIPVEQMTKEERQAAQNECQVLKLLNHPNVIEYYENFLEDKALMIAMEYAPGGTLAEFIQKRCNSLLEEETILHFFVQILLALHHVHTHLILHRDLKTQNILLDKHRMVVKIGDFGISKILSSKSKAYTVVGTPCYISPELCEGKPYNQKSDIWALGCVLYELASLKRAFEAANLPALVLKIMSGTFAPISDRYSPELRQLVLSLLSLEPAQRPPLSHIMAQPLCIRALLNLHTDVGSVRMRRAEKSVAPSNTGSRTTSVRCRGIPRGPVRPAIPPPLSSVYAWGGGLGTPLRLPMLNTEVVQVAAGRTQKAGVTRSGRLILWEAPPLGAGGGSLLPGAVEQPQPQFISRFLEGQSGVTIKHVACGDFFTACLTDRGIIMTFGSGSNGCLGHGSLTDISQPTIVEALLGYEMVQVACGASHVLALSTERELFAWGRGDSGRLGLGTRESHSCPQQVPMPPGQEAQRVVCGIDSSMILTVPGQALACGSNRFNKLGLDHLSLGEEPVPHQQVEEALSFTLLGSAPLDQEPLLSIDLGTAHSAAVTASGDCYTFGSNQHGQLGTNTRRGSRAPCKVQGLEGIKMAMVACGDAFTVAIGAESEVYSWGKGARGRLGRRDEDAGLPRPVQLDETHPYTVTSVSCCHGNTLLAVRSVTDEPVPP
From the text: as §1

[23] = target: T23, panel of 371 human kinases (Homo sapiens, UniProt P42685); settings: FRK/PTK5; 0.1 μM; 10 μM ATP; read-out: % Enzyme Activity (relative to DMSO controls)
T23 construct: purchased Reaction Biology Corp
From the text: as §1

[24] = target: T24, panel of 371 human kinases (Homo sapiens, UniProt Q9HC98); settings: NEK6; 0.1 μM; 10 μM ATP; read-out: % Enzyme Activity (relative to DMSO controls)
T24 construct: purchased Reaction Biology Corp
T24 sequence (Q9HC98 whole entry): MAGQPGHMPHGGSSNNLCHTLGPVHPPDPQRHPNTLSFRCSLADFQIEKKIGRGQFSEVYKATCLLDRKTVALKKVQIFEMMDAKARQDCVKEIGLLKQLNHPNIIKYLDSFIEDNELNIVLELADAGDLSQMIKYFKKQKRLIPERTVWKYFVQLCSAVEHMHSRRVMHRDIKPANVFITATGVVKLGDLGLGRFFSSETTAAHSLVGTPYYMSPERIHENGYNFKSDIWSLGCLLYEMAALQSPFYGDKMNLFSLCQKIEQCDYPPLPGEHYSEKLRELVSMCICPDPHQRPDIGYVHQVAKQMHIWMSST
From the text: as §1

Row | SMILES | remaining activity at 0.1 µM [1] [%] | remaining activity at 0.1 µM [2] [%] | remaining activity at 0.1 µM [3] [%] | remaining activity at 0.1 µM [4] [%] | remaining activity at 0.1 µM [5] [%] | remaining activity at 0.1 µM [6] [%] | remaining activity at 0.1 µM [7] [%] | remaining activity at 0.1 µM [8] [%] | remaining activity at 0.1 µM [9] [%] | remaining activity at 0.1 µM [10] [%] | remaining activity at 0.1 µM [11] [%] | remaining activity at 0.1 µM [12] [%] | remaining activity at 0.1 µM [13] [%] | remaining activity at 0.1 µM [14] [%] | remaining activity at 0.1 µM [15] [%] | remaining activity at 0.1 µM [16] [%] | remaining activity at 0.1 µM [17] [%] | remaining activity at 0.1 µM [18] [%] | remaining activity at 0.1 µM [19] [%] | remaining activity at 0.1 µM [20] [%] | also measured
1 | CN1CCN(Cc2ccc(-c3cnc4[nH]cc(-c5ccc6[nH]ccc6c5)c4c3)cc2)CC1 [Compound 1, 3-(1H-Indol-5-yl)-5-(4-((4-methylpiperazin-1-yl)methyl)phenyl)-1H-pyrrolo[2,3-b]pyridine, reference compound] | 104 | 75.6 | 95.3 | 99 | 118 | 90.8 | 94 | 110 | 98 | 109 | 83.5 | 116 | 19.4 | 81.7 | 89.5 | 85.2 | 74.3 | 92.3 | 101 | 73 | remaining activity at 0.1 µM [21]: 66%; remaining activity at 0.1 µM [22]: 99.1%; remaining activity at 0.1 µM [23]: 91.1%; remaining activity at 0.1 µM [24]: 92.7%
2 | OCCN1CCN(Cc2ccc(-c3cnc4[nH]cc(-c5cccc(Cl)c5)c4c3)cc2)CC1 [Compound 12k, 2-(4-(4-(3-(3-Chlorophenyl)-1H-pyrrolo[2,3-b]pyridin-5-yl)benzyl)piperazin-1-yl)ethan-1-ol] | 94.5 | 73.4 | 96 | 98.7 | 105 | 94.6 | 95 | 110 | 97.3 | 90.4 | 41.2 | 125 | 52.2 | 85.8 | 94.4 | 78.2 | 88.2 | 64.3 | 107 | 73.2 | remaining activity at 0.1 µM [21]: 78.9%; remaining activity at 0.1 µM [22]: 97.9%; remaining activity at 0.1 µM [23]: 98.3%; remaining activity at 0.1 µM [24]: 95.1%
